One assay concerns the target T1, human P2Y12 (Homo sapiens, UniProt Q9H244).
T1 construct: HA (N); expressed in transfected cells; host or cells: HEK293
Kind of assay: Intracellular Ca2+ mobilization, HEK293 co-transfected with P2Y12 wild-type and Gαqi5. It is filed as cell-based. The conditions noted are these: calcium mobilization, HEK293, P2Y12 WT + Gαqi5, mean ± SEM. As to the method:
(§1) Intracellular Ca^2+ assays were carried out as follows.
Background: A change in cytosolic calcium serves as a functional read-out for many receptors and channels.

The next assay deals with T2, P2Y12-E281A (Homo sapiens, UniProt Q9H244, E281A).
T2 construct: HA (N); expressed in transfected cells; host or cells: HEK293
Kind of assay: Intracellular Ca2+ mobilization, HEK293 expressing P2Y12 E281A mutant. The class given is cell-based. The conditions noted are these: calcium mobilization, mean ± SEM. The method, then:
as §1

In a further assay the target is T3, P2Y12-D84A (Homo sapiens, UniProt Q9H244, D84A).
T3 construct: HA (N); expressed in transfected cells; host or cells: HEK293
Kind of assay: Intracellular Ca2+ mobilization, HEK293 expressing P2Y12 D84A mutant. It is filed as cell-based. The conditions noted are these: calcium mobilization, mean ± SEM. The method, then: as §1

Another assay deals with T4, P2Y12-K80A (Homo sapiens, UniProt Q9H244, K80A).
T4 construct: HA (N); expressed in transfected cells; host or cells: HEK293
Kind of assay: Intracellular Ca2+ mobilization, HEK293 expressing P2Y12 K80A mutant. The conditions noted are these: calcium mobilization, mean ± SEM. It is filed as cell-based. The method, then:
as §1

The target of another assay is T5, P2Y12-K280A (Homo sapiens, UniProt Q9H244, K280A).
T5 construct: HA (N); expressed in transfected cells; host or cells: HEK293
Kind of assay: Intracellular Ca2+ mobilization, HEK293 expressing P2Y12 K280A mutant. The class given is cell-based. The conditions noted are these: calcium mobilization, mean ± SEM. As to the method: as §1

The target of a further assay is T6, P2Y12-F277A (Homo sapiens, UniProt Q9H244, F277A).
T6 construct: HA (N); expressed in transfected cells; host or cells: HEK293
Kind of assay: Intracellular Ca2+ mobilization, HEK293 expressing P2Y12 F277A mutant. The class given is cell-based. The conditions noted are these: calcium mobilization, mean ± SEM. As to the method: as §1

In a further assay the target is T7, P2Y14-E278A (Homo sapiens, UniProt Q15391, E278A).
T7 construct: HA (N); expressed in transfected cells; host or cells: HEK293
T7 sequence (Q15391 1-338 E278A): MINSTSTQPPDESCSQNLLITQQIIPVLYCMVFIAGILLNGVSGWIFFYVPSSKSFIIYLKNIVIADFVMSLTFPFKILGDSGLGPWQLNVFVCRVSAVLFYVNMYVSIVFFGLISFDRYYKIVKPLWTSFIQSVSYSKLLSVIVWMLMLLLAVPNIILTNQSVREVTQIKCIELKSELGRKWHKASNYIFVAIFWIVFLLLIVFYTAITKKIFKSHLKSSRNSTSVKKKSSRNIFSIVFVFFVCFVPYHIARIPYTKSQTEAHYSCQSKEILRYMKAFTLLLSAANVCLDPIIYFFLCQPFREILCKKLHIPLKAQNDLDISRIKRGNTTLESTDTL
Kind of assay: Intracellular Ca2+ mobilization, HEK293 expressing P2Y14 E278A mutant. It is filed as cell-based. The conditions noted are these: calcium mobilization, mean ± SEM.

In another assay the target is T8, P2Y14-K77A (Homo sapiens, UniProt Q15391, K77A).
T8 construct: HA (N); expressed in transfected cells; host or cells: HEK293
T8 sequence (Q15391 1-338 K77A): T7 sequence (Q15391 1-338 E278A) with K77A, A278E
Kind of assay: Intracellular Ca2+ mobilization, HEK293 expressing P2Y14 K77A mutant. The class given is cell-based. The conditions noted are these: calcium mobilization, mean ± SEM.

Another assay has as its target T9, P2Y14-K277A (Homo sapiens, UniProt Q15391, K277A).
T9 sequence (Q15391 1-338 K277A): T7 sequence (Q15391 1-338 E278A) with K277A, A278E
Kind of assay: cell-based.

The target in the next assay is T10, human P2Y14 (Homo sapiens, UniProt Q15391).
T10 construct: HA (N); expressed in transfected cells; host or cells: HEK293
T10 sequence (Q15391 1-338): T7 sequence (Q15391 1-338 E278A) with A278E
Kind of assay: Intracellular Ca2+ mobilization, HEK293 co-transfected with P2Y14 wild-type and Gαqi5. It is filed as cell-based. The conditions noted are these: calcium mobilization, HEK293, P2Y14 WT + Gαqi5, mean ± SEM.

Another assay concerns the target T11, P2Y14-D81A (Homo sapiens, UniProt Q15391, D81A).
T11 construct: HA (N); expressed in transfected cells; host or cells: HEK293
T11 sequence (Q15391 1-338 D81A): T7 sequence (Q15391 1-338 E278A) with D81A, A278E
Kind of assay: Intracellular Ca2+ mobilization, HEK293 expressing P2Y14 D81A mutant. The class given is cell-based. The conditions noted are these: calcium mobilization, mean ± SEM.

The term EC50 denotes the concentration at which the effect is half-maximal.

SMILES strings stand for the structures. Where a chain is given by its changes, count along the chain named.

T5 sequence (Q9H244 whole entry K280A): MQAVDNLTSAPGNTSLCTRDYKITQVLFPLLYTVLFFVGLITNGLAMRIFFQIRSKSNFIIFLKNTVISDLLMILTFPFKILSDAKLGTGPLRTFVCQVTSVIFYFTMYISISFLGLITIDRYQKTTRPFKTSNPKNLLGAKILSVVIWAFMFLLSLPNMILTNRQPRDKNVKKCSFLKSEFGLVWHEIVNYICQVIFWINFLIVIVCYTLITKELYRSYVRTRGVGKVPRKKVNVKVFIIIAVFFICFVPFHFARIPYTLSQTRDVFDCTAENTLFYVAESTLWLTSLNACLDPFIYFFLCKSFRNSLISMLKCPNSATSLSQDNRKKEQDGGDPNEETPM
T2 sequence (Q9H244 whole entry E281A): as the sequence (Q9H244 whole entry K280A) above, with A280K, E281A counted along it
T4 sequence (Q9H244 whole entry K80A): as the sequence (Q9H244 whole entry K280A) above, with K80A, A280K counted along it
T3 sequence (Q9H244 whole entry D84A): as the sequence (Q9H244 whole entry K280A) above, with D84A, A280K counted along it
T1 sequence (Q9H244 whole entry): as the sequence (Q9H244 whole entry K280A) above, with A280K counted along it
T6 sequence (Q9H244 whole entry F277A): as the sequence (Q9H244 whole entry K280A) above, with F277A, A280K counted along it

Turning to `Nc1ncnc2c1ncn2C1OC(COP(=O)(O)OP(=O)(O)OC2OC(CO)C(O)C(O)C2O)C(O)C1O` (stereo not shown) [ADP-Glc, ADP-glucose], the EC50 on human P2Y12 turned out to be 3.4 ± 0.4 µM; on P2Y12-E281A, 75.3 ± 10.1 µM; at P2Y12-D84A, 29.3 ± 1.2 µM; on P2Y12-K80A, 96.9 ± 14.4 µM; on P2Y12-K280A it was 41.8 ± 3 µM; on P2Y12-F277A it was 15.4 ± 1.1 µM.
As to `Nc1ncnc2c1ncn2C1OC(COP(=O)(O)OP(=O)(O)OC2OC(C(=O)O)C(O)C(O)C2O)C(O)C1O` (stereo not shown) [ADP-GlcA, ADP-glucuronic acid], the EC50 on human P2Y12 worked out at 1.3 ± 0.1 µM; at P2Y12-E281A, 28.2 ± 4.1 µM; on P2Y12-D84A, 9.4 ± 0.3 µM; at P2Y12-K80A, 35.2 ± 0.5 µM; on P2Y12-K280A, 18.1 ± 3.3 µM; on P2Y12-F277A, 5 ± 0.4 µM.
`Nc1ncnc2c1ncn2C1OC(COP(=O)(O)OP(=O)(O)OC2OC(CO)C(O)C(O)C2O)C(O)C1O` (stereo not shown) [ADP-Man, ADP-mannose]: the EC50 on human P2Y12 is 12.3 ± 0.9 µM; on P2Y12-E281A, above 150 µM; on P2Y12-D84A it was above 150 µM; at P2Y12-K80A it was above 150 µM; on P2Y12-K280A, above 150 µM; on P2Y12-F277A it was 128 ± 17.6 µM.
As to `O=C(O)C1OC(OP(=O)(O)OP(=O)(O)OCC2OC(n3ccc(=O)[nH]c3=O)C(O)C2O)C(O)C(O)C1O` (stereo not shown) [UDP-GlcA, UDP-glucuronic acid], the EC50 on P2Y14-E278A is 0.0382 ± 0.0022 µM; on P2Y14-K77A, above 3 µM; on P2Y14-K277A, above 3 µM; on human P2Y14 it was 0.0599 ± 0.0048 µM; at P2Y14-D81A it was 0.172 ± 0.0098 µM.
With `CC(=O)N[C@H]1[C@@H](OP(=O)(O)OP(=O)(O)OC[C@H]2O[C@@H](n3ccc(=O)[nH]c3=O)[C@H](O)[C@@H]2O)O[C@H](CO)[C@@H](O)[C@@H]1O` [UDP-GlcNAc, UDP-N-acetylglucosamine], the concentration for a half-maximal effect (EC50) on P2Y14-E278A is 0.624 ± 0.102 µM; at P2Y14-K77A, above 3 µM; at P2Y14-K277A it was 0.549 ± 0.0744 µM; on human P2Y14 it was 0.184 ± 0.0118 µM; on P2Y14-D81A, 3 ± 0.174 µM.
